In article PMC7997635 (Journal of medicinal chemistry, 2021):
≈ marks a conversion by molar mass, not a printed value. Values belong to the compound of their own block, whether it stands above or below them.

How the values were obtained:
P. falciparum [1] = conditions: previously characterized with the standard PRR assay ref 34; cited from earlier work
P. falciparum Dd2 = assay: SYBR Green parasite growth inhibition assay, 72 h; assay type: cell-based, Plasmodium falciparum
P. falciparum NF54-luc = assay: Bioluminescence relative rate of kill; assay type: cell-based, Plasmodium falciparum; conditions: 6 h exposure, 30× to […] EC50, compared with benchmarks
[2] = system: conversion of hematin (Fe(III)PPIX) to β-hematin; assay type: biochemical; conditions: pH 4.8 acetate, NP-40, 37 °C, 5 h; for IC50: read-out: IC50 for inhibition of βH formation
[3] = system: P. berghei liver stage (Pb-Luc sporozoites in HepG2-A16-CD81EGFP cells); assay: P. berghei liver stage assay; assay type: cell-based, Plasmodium berghei; conditions: for EC50: read-out: Pb liver stage EC50, two independent replicates
HepG2 = assay: HepG2tox assay run with the liver stage assay; assay type: cell-based, human; conditions: read-out: HepG2 CC50 (life cycle profiling); two independent replicates
[4] = HepG2tox assay run with the liver stage assay; assay type: cell-based, human; conditions: human, HepG2 cells, HepG2 CC50 (life cycle profiling), two independent replicates
[5] = Solubility in NP-40/DMSO buffer of the heme biomineralization assay; assay type: physicochemical
[6] = Kinetic solubility in pH 2.0 and pH 6.5 buffers; assay type: physicochemical
[7] = HepG2 in vitro cytotoxicity; assay type: cell-based; conditions: human, HepG2 cells
[8] = system: Hz formation in NF54 parasites; assay: Cellular heme fractionation assay; assay type: cell-based; conditions: Plasmodium falciparum, NF54, 32 h, read-out: EC50 (heme), drug concentration giving 50% response of 'free' heme Fe
PfNF54 parasites = assay: Parasite survival concentration response; assay type: cell-based; conditions: Plasmodium falciparum, read-out: EC50 (survival), parasite survival
P. falciparum 3D7 [9] = assay: SYBR Green parasite growth inhibition assay, 72 h; assay type: cell-based; conditions: Plasmodium falciparum, 3D7, 72 h, read-out: P. falciparum EC50 Pf3D7, 72 h SYBR Green assay, ABS parasites; mean ± std dev (n) or individual replicates
male stage V gametocytes = assay: Dual gamete formation assay; assay type: cell-based; conditions: Plasmodium falciparum, read-out: DGFA male gametocytes inhibition
P. falciparum 3D7 [10] = assay: 48 h 3H-hypoxanthine incorporation assay; assay type: cell-based; conditions: Plasmodium falciparum, 3D7, 48 h, read-out: EC50, 48 h hypoxanthine assay
P. falciparum 3D7 [11] = assay: Two-color flow cytometry kill rate assay; assay type: cell-based, Plasmodium falciparum; conditions: 10× EC50, 24 or 48 h
P. falciparum [12] = assay: PRR drug washout kill rate assay; assay type: cell-based, Plasmodium falciparum; conditions: 10× EC50, 24 or 48 h
[13] = phosphate buffered saline pH 6.5, pH 6.5

Compound: Cc1cc(Nc2ccc(S(F)(F)(F)(F)F)cc2)n2nc(C(C)(F)F)nc2n1 [DSM265]
- rate of kill class of benchmark compound (P. falciparum [1]): slow-kill

Compound: Cc1ccccc1N(C)C(=O)C(c1cccnc1)N(Cc1cccc(OC(F)(F)F)c1)C1CC1 (stereo not drawn) [Compound 26, 2-(Cyclopropyl(3-(trifluoromethoxy)benzyl)amino)-N-methyl-2-(pyridin-3-yl)-N-(o-tolyl)acetamide]
- Fold Diff in EC50, Dd2 relative to 3D7 (P. falciparum Dd2): 3–5 fold

Compound: CCC(C(=O)Nc1cccc(Cl)c1)N1C(=O)C(C)N=C(c2ccccc2)c2ccccc21 (stereo not drawn) [Compound 1, N-(3-Chlorophenyl)-2-(3-methyl-2-oxo-5-phenyl-2,3-dihydro-1H-benzo[e][1,4]diazepin-1-yl)butanamide]
- rate of kill profile in BRRoK assay (P. falciparum NF54-luc): slow kill kinetics

Compound: Cc1ccccc1-n1nnnc1C(c1cccnc1)N(Cc1cccc(C(F)(F)F)c1)C1CC1 (stereo not drawn) [Compound 9, N-(Pyridin-3-yl(1-(o-tolyl)-1H-tetrazol-5-yl)methyl)-N-(3-(trifluoromethyl)benzyl) cyclopropanamine]
- inhibition of βH formation (in words) [2]: inhibited βH formation with the same potency as MFQ
- EC50 [3]: 12 µM
- CC50 (HepG2): > 17 µM
- CC50 [4]: 19 µM
- solubility [5]: ≥ 2000 µM
- solubility kinetic ([6]; pH 2.0 buffer, pH 2): 12 to 23 µg/mL (≈ 25.8 to 49.5 µM)
- solubility kinetic [6, 13]: 1.5 to 2.9 µg/mL (≈ 3.23 to 6.24 µM)

Compound: O=C1C(O)=C([C@H]2CC[C@H](c3ccc(Cl)cc3)CC2)C(=O)c2ccccc21 [ATQ, atovaquone]
- rate of kill class of benchmark compound (P. falciparum [1]): slow-kill

Compound: CCCN(C(c1cncnc1)c1nnnn1-c1ccccc1C)C1(c2cccc(C(F)(F)F)c2)CC1 (stereo not drawn) [Compound 20, N-Propyl-N-(pyrimidin-5-yl(1-(o-tolyl)-1H-tetrazol-5-yl)methyl)-1-(3-(trifluoromethyl)phenyl)cyclopropan-1-amine]
- selectivity ratio at 72 h [7]: 40 to 50

Compound: CCN(CC)CCCC(C)Nc1ccnc2cc(Cl)ccc12 (stereo not drawn) [CQ, chloroquine]
- EC50 [8]: 0.058 µM
- EC50 (PfNF54 parasites): 0.015 µM
- rate of kill class of benchmark compound (P. falciparum [1]): fast-kill

- EC50 (P. falciparum 3D7 [9]): ~1 µM
Compound: COc1ccc(C(F)(F)F)cc1CN(C)C(c1cccnc1)c1nnnn1-c1ccccc1C (stereo not drawn) [Compound 6, N-(2-methoxy-5-(trifluoromethyl)benzyl)-N-methyl-1-(pyridin-3-yl)-1-(1-(o-tolyl)-1H-tetrazol-5-yl)methenamine]

Compound: COc1ccc(Br)cc1CN(C)C(c1ccccc1)c1nnnn1-c1ccccc1C (racemic) [Compound 3, N-(5-bromo-2-methoxybenzyl)-N-methyl-1-phenyl-1-(1-(o-tolyl)-1H-tetrazol-5-yl)methenamine]
- inhibition of βH formation (in words) [2]: nearly inactive
- solubility [5]: ≥ 2000 µM
- rate of kill profile in BRRoK assay (P. falciparum NF54-luc): fast kill mechanism

Compound: Cc1ccccc1N(C)C(=O)C(c1cncnc1)N(Cc1cccc(C(F)(F)F)c1)C1CC1 (stereo not drawn) [Compound 23, 2-(Cyclopropyl(3-(trifluoromethyl)benzyl)amino)-N-methyl-2-(pyrimidin-5-yl)-N-(o-tolyl)acetamide]
- rate of kill profile in BRRoK assay (P. falciparum NF54-luc): fast kill kinetics
- solubility kinetic ([6]; pH 2.0 buffer, pH 2): 11 to 23 µg/mL (≈ 24.2 to 50.6 µM)

- IC50 [2]: ≤ 100 µM
Compound: O[C@@H](c1cc(C(F)(F)F)nc2c(C(F)(F)F)cccc12)[C@H]1CCCCN1 (racemic) [MFQ, mefloquine, reference compound]

Compound: Cc1ccccc1N(C)C(=O)C(c1cncnc1)N(Cc1cccc(OC(F)(F)F)c1)C1CC1 (stereo not drawn) [Compound 27, 2-(Cyclopropyl(3-(trifluoromethoxy)benzyl)amino)-N-methyl-2-(pyrimidin-5-yl)-N-(o-tolyl)acetamide]
- Fold Diff in EC50, Dd2 relative to 3D7 (P. falciparum Dd2): 1.4 – 3.0 fold

- solubility kinetic ([6]; pH 2.0 buffer, pH 2): 12.5 to 25 µg/mL (≈ 25.3 to 50.6 µM)
- solubility kinetic [6, 13]: 1.6 to 3.1 µg/mL (≈ 3.24 to 6.27 µM)
Compound: COc1ccc(C(F)(F)F)cc1CN(C1CC1)C(c1cccnc1)c1nnnn1-c1ccccc1C (stereo not drawn) [Compound 7, N-(2-methoxy-5-(trifluoromethyl)benzyl)-N-(pyridin-3-yl(1-(o-tolyl)-1H-tetrazol-5-yl)methyl)cyclopropanamine]

Compound: Cc1ccccc1N(C)C(=O)C(c1cccnc1)N(Cc1cc(C(F)(F)F)ccc1F)C1CC1 (stereo not drawn) [Compound 32, 2-(Cyclopropyl(2-fluoro-5-(trifluoromethyl)benzyl)amino)-N-methyl-2-(pyridin-3-yl)-N-(o-tolyl)acetamide]
- Pb liver stage EC50 relative to P. falciparum blood stage EC50 ([3]; fold higher): 20 to 30 fold
- EC50 [3]: 16 µM
- CC50 [4]: 24 µM
- inhibition at 25 µM (male stage V gametocytes): ~60%
- solubility kinetic [6, 13]: 1.5 to 2.9 µg/mL (≈ 3.18 to 6.15 µM)

- solubility kinetic [6, 13]: 25 to 50 µg/mL (≈ 59.9 to 120 µM)
Compound: O=C(C(c1cccnc1)N(Cc1cccc(C(F)(F)F)c1)C1CC1)N1CCCCC1 (stereo not drawn) [Compound 34, 2-(Cyclopropyl(3-(trifluoromethyl)benzyl)amino)-1-(piperidin-1-yl)-2-(pyridin-3-yl)ethan-1-one]

- EC50 (P. falciparum 3D7 [10]): 0.094 µM
- EC50 [8]: > 0.1 µM
Compound: CCc1nc(N)nc(N)c1-c1ccc(Cl)cc1 [PYR, pyrimethamine]
- EC50 (PfNF54 parasites): 0.033 µM

Compound: Cc1ccccc1-n1nnnc1C(c1cncnc1)N(Cc1cccc(C(F)(F)F)c1)C1CC1 (stereo not drawn) [Compound 10, N-(Pyrimidin-5-yl(1-(o-tolyl)-1H-tetrazol-5-yl)methyl)-N-(3-(trifluoromethyl)benzyl)cyclopropanamine]
- inhibition of βH formation (in words) [2]: weaker inhibition
- CC50 at 72 h [7]: > 30 µM
- EC50 [8]: 1.04 µM
- EC50 (P. falciparum 3D7 [9]): 0.32 µM
- solubility [5]: ≥ 2000 µM
- rate of kill profile in BRRoK assay (P. falciparum NF54-luc): fast kill kinetics
- kill kinetics in two-color FACS assay (P. falciparum 3D7 [11]): kill kinetics similar to CQ, though slower than ART
- kill kinetics in PRR washout assay (P. falciparum [12]): kill kinetics similar to CQ, though slower than ART
- solubility kinetic ([6]; pH 2.0 buffer, pH 2): 1.5 to 2.9 µg/mL (≈ 3.22 to 6.23 µM)
- solubility kinetic [6, 13]: 1.5 to 2.9 µg/mL (≈ 3.22 to 6.23 µM)

Compound: C[C@@H]1CC[C@H]2[C@@H](C)C(=O)O[C@@H]3O[C@@]4(C)CC[C@@H]1[C@]32OO4 [ART, artemisinin]
- rate of kill class of benchmark compound (P. falciparum [1]): fast-kill

Compound: CC(=O)c1ccc(NC(=O)c2ccc(NC(=O)C3COc4ccccc4O3)cc2)cc1 (stereo not drawn) [Compound 2, N-(4-((4-Acetylphenyl)carbamoyl)phenyl)-2,3-dihydrobenzo[b][1,4]dioxine-2-carboxamide]
- rate of kill profile in BRRoK assay (P. falciparum NF54-luc): slow kill kinetics

- solubility kinetic [6, 13]: 6.3 to 12.5 µg/mL (≈ 13.9 to 27.6 µM)
Compound: Cc1ccccc1N(C)C(=O)C(c1cccnc1)N(Cc1cccc(C(F)(F)F)c1)C1CC1 (stereo not drawn) [Compound 22, 2-(Cyclopropyl(3-(trifluoromethyl)benzyl)amino)-N-methyl-2-(pyridin-3-yl)-N-(o-tolyl)acetamide]

- IC50 [2]: ≤ 100 µM
Compound: CCN(CC)Cc1cc(Nc2ccnc3cc(Cl)ccc23)ccc1O [amodiaquine, reference compound]

- IC50 [2]: ≤ 100 µM
Compound: COc1ccc2nc3cc(Cl)ccc3c(Nc3cc(CN4CCCC4)c(O)c(CN4CCCC4)c3)c2n1 [pyronaridine, reference compound]

- EC50 (P. falciparum 3D7 [9]): ~0.3 µM
Compound: CCCN(C(c1cccnc1)c1nnnn1-c1ccccc1C)C1(c2cccc(C(F)(F)F)c2)CC1 (stereo not drawn) [Compound 21, N-Propyl-N-(pyridin-3-yl(1-(o-tolyl)-1H-tetrazol-5-yl)methyl)-1-(3-(trifluoromethyl)phenyl)cyclopropan-1-amine]
- selectivity ratio at 72 h [7]: 40 to 50
